Measured values reported in PMC4791264, “Characterization and bioactivity of novel calcium antagonists - N-methoxy-benzyl haloperidol quaternary ammonium salt” (Oncotarget, 2015).

What follows are molecules tested on SD rats (assay: Effect on rat hemodynamics (left ventricular pressure, heart rate)). Details: 0.25 mg/kg; anesthetized SD rats; 3 min after administration.

Compound	HR	LVEDP	LVSP	+LVdp/dtmax	−LVdp/dtmax
COc1ccc(C[N+]2(CCCC(=O)c3ccc(F)cc3)CCC(O)(c3ccc(Cl)cc3)CC2)cc1 (stereo not shown) [Compound X1]	355 ± 61	20.34 ± 3.06	145.32 ± 20.08		
COc1cccc(C[N+]2(CCCC(=O)c3ccc(F)cc3)CCC(O)(c3ccc(Cl)cc3)CC2)c1 (stereo not shown) [Compound X2]	365 ± 59	22.12 ± 3.76	145.98 ± 16.42		
COc1ccccc1C[N+]1(CCCC(=O)c2ccc(F)cc2)CCC(O)(c2ccc(Cl)cc2)CC1 (stereo not shown) [Compound X3]	358 ± 52	23.86 ± 3.65	142.94 ± 18.08		
COc1ccc([C@@H]2Sc3ccccc3N(CCN(C)C)C(=O)[C@@H]2OC(C)=O)cc1 [Dil, diltiazem]	322 ± 25	30.21 ± 3.99	138.54 ± 21.35	1099.22 ± 142.66	787.25 ± 74.25
COC(=O)C1=C(C)NC(C)=C(C(=O)OC)C1c1ccccc1[N+](=O)[O-] [Nif, nifedipine]	372 ± 29	29.33 ± 5.56	137.21 ± 18.26		
COc1ccc(CCN(C)CCCC(C#N)(c2ccc(OC)c(OC)c2)C(C)C)cc1OC (stereo not shown) [Ver, verapamil]	328 ± 28	25.39 ± 7.45	132.24 ± 12.74	1022.49 ± 130.44	932.24 ± 95.54

Same assay, conditions: 0.5 mg/kg; anesthetized SD rats; 3 min after administration

Compound	HR	LVEDP	LVSP	+LVdp/dtmax	−LVdp/dtmax
COc1ccc(C[N+]2(CCCC(=O)c3ccc(F)cc3)CCC(O)(c3ccc(Cl)cc3)CC2)cc1 (stereo not shown) [Compound X1]	356 ± 55	21.02 ± 3.08	145.38 ± 18.06		
COc1cccc(C[N+]2(CCCC(=O)c3ccc(F)cc3)CCC(O)(c3ccc(Cl)cc3)CC2)c1 (stereo not shown) [Compound X2]	362 ± 63	22.08 ± 3.44	146.66 ± 18.04		
COc1ccccc1C[N+]1(CCCC(=O)c2ccc(F)cc2)CCC(O)(c2ccc(Cl)cc2)CC1 (stereo not shown) [Compound X3]	362 ± 55	24.91 ± 3.07	148.98 ± 20.02		
COc1ccc([C@@H]2Sc3ccccc3N(CCN(C)C)C(=O)[C@@H]2OC(C)=O)cc1 [Dil, diltiazem]	321 ± 29	33.26 ± 4.26	130.25 ± 17.33	922.11 ± 129.44	689.76 ± 77.62
COC(=O)C1=C(C)NC(C)=C(C(=O)OC)C1c1ccccc1[N+](=O)[O-] [Nif, nifedipine]	397 ± 73	33.64 ± 8.12	132.11 ± 11.10		
COc1ccc(CCN(C)CCCC(C#N)(c2ccc(OC)c(OC)c2)C(C)C)cc1OC (stereo not shown) [Ver, verapamil]	302 ± 77	38.21 ± 8.18	112.74 ± 21.08	925.38 ± 172.37	699.87 ± 91.11

Same assay, conditions: 1 mg/kg; anesthetized SD rats; 3 min after administration

Compound	HR	LVEDP	LVSP	+LVdp/dtmax	−LVdp/dtmax
COc1ccc(C[N+]2(CCCC(=O)c3ccc(F)cc3)CCC(O)(c3ccc(Cl)cc3)CC2)cc1 (stereo not shown) [Compound X1]	342 ± 51	29.66 ± 4.33	132.32 ± 18.66		
COc1cccc(C[N+]2(CCCC(=O)c3ccc(F)cc3)CCC(O)(c3ccc(Cl)cc3)CC2)c1 (stereo not shown) [Compound X2]	356 ± 53	26.93 ± 3.26	138.94 ± 16.06		
COc1ccccc1C[N+]1(CCCC(=O)c2ccc(F)cc2)CCC(O)(c2ccc(Cl)cc2)CC1 (stereo not shown) [Compound X3]	368 ± 54	23.69 ± 3.77	152.88 ± 21.04		
COc1ccc([C@@H]2Sc3ccccc3N(CCN(C)C)C(=O)[C@@H]2OC(C)=O)cc1 [Dil, diltiazem]	304 ± 47	38.51 ± 7.45	127.55 ± 21.23	899.08 ± 128.32	622.94 ± 84.42
COC(=O)C1=C(C)NC(C)=C(C(=O)OC)C1c1ccccc1[N+](=O)[O-] [Nif, nifedipine]	311 ± 54	45.50 ± 6.43	105.00 ± 12.23		
COc1ccc(CCN(C)CCCC(C#N)(c2ccc(OC)c(OC)c2)C(C)C)cc1OC (stereo not shown) [Ver, verapamil]	298 ± 41	42.21 ± 6.23	102.21 ± 14.21	885.32 ± 122.21	657.80 ± 85.55

These molecules were tested on H9c2 cell (assay: LDH in culture medium under hypoxia/reoxygenation, H9c2 cells). Details: 1 × 10^−6 mol/L, vs H/R group (p < 0.01).
Type: cell-based
Experimental: (§1) Myocardiocytes H9c2 cell and the one which the L-type calcium channel gene was knock-out, the […]-/-) were incubated separately in culture plates. When cell confluence reached 85%, the cells were incubated for another 12 hours in DMEM medium with 0.5% FBS. Then cells were randomly divided into 6 groups, namely the control group, H/R group, DMSO group, H/R+X1(1 × 10^-6 mol/L) group, H/R+X2 (1 × 10^-6 mol/L) group and H/R+X3 (1 × 10^-6 mol/L) group. The hypoxic DMEM culture medium and reoxygenation medium were used in H/R process. The final volume was 500 uL. The compounds (X1, X2, X3) were administered continuously during the hypoxia/reoxygenation process. Finally, cell supernatant was collected and LDH was measured by colorimetric method according to the Kit instruction by manufacturer (Nanjin Jiancheng Lit. China).

Compound	LDH under H/R
COc1ccc(C[N+]2(CCCC(=O)c3ccc(F)cc3)CCC(O)(c3ccc(Cl)cc3)CC2)cc1 (stereo not shown) [Compound X1]	decreased
COc1cccc(C[N+]2(CCCC(=O)c3ccc(F)cc3)CCC(O)(c3ccc(Cl)cc3)CC2)c1 (stereo not shown) [Compound X2]	decreased
COc1ccccc1C[N+]1(CCCC(=O)c2ccc(F)cc2)CCC(O)(c2ccc(Cl)cc2)CC1 (stereo not shown) [Compound X3]	decreased

The molecules below were run against T1, L-type calcium channels in rat ventricular myocytes (Rattus norvegicus, UniProt P0DP29+P22002) (assay: Inhibition of L-type calcium current (patch-clamp)). Details: 0.1 to 10 μM; rat myocardiocytes.
T1 construct: reduced the amplitude of the L-type calcium current in rat myocardiocytes; endogenous in cells; host or cells: rat ventricular myocytes (single cells)
Type: cell-based

Compound	maximum inhibition rate of L-type calcium current [%]
COc1ccc(C[N+]2(CCCC(=O)c3ccc(F)cc3)CCC(O)(c3ccc(Cl)cc3)CC2)cc1 (stereo not shown) [Compound X1]	97.2
COc1cccc(C[N+]2(CCCC(=O)c3ccc(F)cc3)CCC(O)(c3ccc(Cl)cc3)CC2)c1 (stereo not shown) [Compound X2]	82.8
COc1ccccc1C[N+]1(CCCC(=O)c2ccc(F)cc2)CCC(O)(c2ccc(Cl)cc2)CC1 (stereo not shown) [Compound X3]	70.2

Same assay, conditions: rat myocardiocytes; 0.1 to 10 μM

Compound	IC50 [nM]
COc1ccc(C[N+]2(CCCC(=O)c3ccc(F)cc3)CCC(O)(c3ccc(Cl)cc3)CC2)cc1 (stereo not shown) [Compound X1]	472
COc1cccc(C[N+]2(CCCC(=O)c3ccc(F)cc3)CCC(O)(c3ccc(Cl)cc3)CC2)c1 (stereo not shown) [Compound X2]	493
COc1ccccc1C[N+]1(CCCC(=O)c2ccc(F)cc2)CCC(O)(c2ccc(Cl)cc2)CC1 (stereo not shown) [Compound X3]	721

Each molecule was assayed on H9c2 cell (Cacnalc−/−) (assay: LDH in culture medium under hypoxia/reoxygenation, H9c2 (Cacnalc−/−) cells). Details: 1 × 10^−6 mol/L.
Type: cell-based
Experimental: as §1

Compound	LDH under H/R
COc1ccc(C[N+]2(CCCC(=O)c3ccc(F)cc3)CCC(O)(c3ccc(Cl)cc3)CC2)cc1 (stereo not shown) [Compound X1]	remained unchanged
COc1cccc(C[N+]2(CCCC(=O)c3ccc(F)cc3)CCC(O)(c3ccc(Cl)cc3)CC2)c1 (stereo not shown) [Compound X2]	remained unchanged
COc1ccccc1C[N+]1(CCCC(=O)c2ccc(F)cc2)CCC(O)(c2ccc(Cl)cc2)CC1 (stereo not shown) [Compound X3]	remained unchanged

These molecules were tested on rat myocardiocytes (assay: Inhibition of KCl-induced extracellular calcium influx (Fluo-3 fluorescence, confocal microscopy)). Details: 10 μM, 60 mM KCl, positive control.
Type: cell-based
Experimental: Fluorescence intensity of Ca^2+ in myocardial cell was determined by laser scanning confocal microscopy (ACAS/ULTIMA312, Meridian Instruments) as previously described. Rat myocardiocytes were grown on 24-mm glass coverslips in 6-well plates in DMEM containing 10% FBS. After 24 h, the cells were incubated with Fluo 3-AM (20 μM) for 60 min in the dark at 37°C. Then, the cells were washed with HBSS three times to remove extracellular Fluo 3-AM. HBSS (HEPES-buffered physiological saline solution) contains 130 mM NaCl, 2.5 mM KCl, 1.2 mM MgCl2, 10 mM HEPES, 10 mM glucose, and 2 mM CaCl2, pH 7.4 (adjusted with NaOH). […] KCl was added into the cultured cells to induce the influx of extracellular Ca^2+ in HBSS and changes in fluorescence were recorded. Myocardiocytes were incubated for 30 min with 0.1, 1, and 10 μM compounds before adding KCl. Effect of compounds on KCl-induced changes in fluorescence was investigated.

Compound	reduction of Ca^2+ fluorescence intensities [%]
COc1ccc(CCN(C)CCCC(C#N)(c2ccc(OC)c(OC)c2)C(C)C)cc1OC (stereo not shown) [Ver, verapamil]	86

Same assay, conditions: 0.1–10 μM, 60 mM KCl

Compound	reduction of Ca^2+ fluorescent intensity, maximum degree [%]
COc1ccc(C[N+]2(CCCC(=O)c3ccc(F)cc3)CCC(O)(c3ccc(Cl)cc3)CC2)cc1 (stereo not shown) [Compound X1]	76.5
COc1cccc(C[N+]2(CCCC(=O)c3ccc(F)cc3)CCC(O)(c3ccc(Cl)cc3)CC2)c1 (stereo not shown) [Compound X2]	53.6
COc1ccccc1C[N+]1(CCCC(=O)c2ccc(F)cc2)CCC(O)(c2ccc(Cl)cc2)CC1 (stereo not shown) [Compound X3]	24.53

What follows are molecules tested on isolated rat thoracic aortic rings (assay: Vasodilation on KCl (60 mM)-contracted isolated rat thoracic aortic rings). Details: KCl (60 mM)-induced contraction of rat aortic rings; 0.1 to 10 μM.
Experimental: The vasodilation activity of compounds was evaluated in isolated rat thoracic aortic rings according to the methods of Greenwood and Polster et al. The aortic rings were allowed to equilibrate in Krebs bicarbonate solution ((PSS), containing118.0 mM NaCl, 4.7 mM KCl, 1.2 mM KH2PO4, 1.2 mM MgSO4.7H2O, 5.0 mM glucose, 25.0 mM NaHCO3, and 2.5 mM CaCl2.7H2O at 37°C and were gassed with 95% O2 and 5% CO2 for 90 min at a testing tension. KCl (60 mM) was used to depolarize the aortic rings. When the amplitude of the contraction reached a plateau, compounds X1, X2, X3 were added. Cumulative concentration-response curves to all compounds were determined in the absence and presence of endothelium. Using tips of forceps, the endothelium was mechanically removed from some rings by gently rubbing the lumen, if absence of endothelium is needed. Acetylcholine was used to confirm the removal of endothelium from the aortic rings.

Compound	IC50 [nM]	maximum inhibition on the vascular ring contraction [%]
COc1ccc(C[N+]2(CCCC(=O)c3ccc(F)cc3)CCC(O)(c3ccc(Cl)cc3)CC2)cc1 (stereo not shown) [Compound X1]	432	92.5
COc1cccc(C[N+]2(CCCC(=O)c3ccc(F)cc3)CCC(O)(c3ccc(Cl)cc3)CC2)c1 (stereo not shown) [Compound X2]	4220	67.08
COc1ccccc1C[N+]1(CCCC(=O)c2ccc(F)cc2)CCC(O)(c2ccc(Cl)cc2)CC1 (stereo not shown) [Compound X3]	7420	48.66

The molecules below were run on SD rats (assay: not given). Details: rat, in vivo, 0.25 mg/kg.

Compound	+LVdp/dtmax	−LVdp/dtmax
COc1ccc(C[N+]2(CCCC(=O)c3ccc(F)cc3)CCC(O)(c3ccc(Cl)cc3)CC2)cc1 (stereo not shown) [Compound X1]	1043.01 ± 143.24	899.04 ± 142.24
COc1cccc(C[N+]2(CCCC(=O)c3ccc(F)cc3)CCC(O)(c3ccc(Cl)cc3)CC2)c1 (stereo not shown) [Compound X2]	1029.32 ± 144.08	982.13 ± 154.56
COc1ccccc1C[N+]1(CCCC(=O)c2ccc(F)cc2)CCC(O)(c2ccc(Cl)cc2)CC1 (stereo not shown) [Compound X3]	1129.28 ± 162.26	989.92 ± 161.23

Same assay, conditions: rat, in vivo, 0.5 mg/kg

Compound	+LVdp/dtmax	−LVdp/dtmax
COc1ccc(C[N+]2(CCCC(=O)c3ccc(F)cc3)CCC(O)(c3ccc(Cl)cc3)CC2)cc1 (stereo not shown) [Compound X1]	1011.02 ± 152.04	908.21 ± 151.02
COc1cccc(C[N+]2(CCCC(=O)c3ccc(F)cc3)CCC(O)(c3ccc(Cl)cc3)CC2)c1 (stereo not shown) [Compound X2]	1022.14 ± 142.21	984.12 ± 144.32
COc1ccccc1C[N+]1(CCCC(=O)c2ccc(F)cc2)CCC(O)(c2ccc(Cl)cc2)CC1 (stereo not shown) [Compound X3]	1221.12 ± 170.02	1021.23 ± 153.77

Same assay, conditions: rat, in vivo, 1 mg/kg

Compound	+LVdp/dtmax	−LVdp/dtmax
COc1ccc(C[N+]2(CCCC(=O)c3ccc(F)cc3)CCC(O)(c3ccc(Cl)cc3)CC2)cc1 (stereo not shown) [Compound X1]	946.02 ± 132.23	884.82 ± 148.09
COc1cccc(C[N+]2(CCCC(=O)c3ccc(F)cc3)CCC(O)(c3ccc(Cl)cc3)CC2)c1 (stereo not shown) [Compound X2]	902.89 ± 138.88	955.23 ± 146.08
COc1ccccc1C[N+]1(CCCC(=O)c2ccc(F)cc2)CCC(O)(c2ccc(Cl)cc2)CC1 (stereo not shown) [Compound X3]	1248.36 ± 182.32	1022.15 ± 162.24
